The MIC is the smallest concentration in the dilution series that meets the test's criterion for growth inhibition.

The text below walks through data of ChEMBL document CHEMBL4837189, “Opportunities and Limitations for Assigning Relative Configurations of Antibacterial Bislactones using GIAO NMR Shift Calculations” (J Nat Prod, 2021).

Values after ≈ are worked out from the molar mass of the structure shown.

One data set has as its system OVCAR-3. The experiment in a line: Cytotoxicty against human OVCAR-3 cells assessed as reduction in cell viability at > 25 uM measured after 72 hrs by CellTiter-Blue cell viability assay. The class given is cell-based. The settings on record: ovcar-3, 72 h. (The colour change of resazurin is a common sign of viable cells or microbes.)
In the next data set the test system is MDA-MB-435. Put plainly: Cytotoxicty against human MDA-MB-435 cells assessed as reduction in cell viability at > 25 uM measured after 72 hrs by CellTiter-Blue cell viability assay. The format is cell-based. The settings on record: mda-mb-435, 72 h.
Another data set relates to Escherichia coli. The experiment in a line: Antimicrobial activity against Escherichia coli assessed as microbial growth inhibition by CLSI-protocol based broth microdilution assay. The format is functional. For orientation: In broth dilution the organism is exposed to a series of concentrations in liquid medium.
The next data set concerns Bacillus anthracis. The experiment in a line: Antimicrobial activity against Bacillus anthracis assessed as microbial growth inhibition by CLSI-protocol based broth microdilution assay. The format is functional.
Another data set has as its system MDA-MB-231. Put plainly: Cytotoxicty against human MDA-MB-231 cells assessed as reduction in cell viability at > 25 uM measured after 72 hrs by CellTiter-Blue cell viability assay. The format is cell-based. The following applies: mda-mb-231, 72 h.
Data set [1] has as its system Staphylococcus aureus. The experiment in a line: Antimicrobial activity against Staphylococcus aureus assessed as microbial growth inhibition by CLSI-protocol based broth microdilution assay. The class given is functional.
The test system of the next data set is Pseudomonas aeruginosa. The experiment in a line: Antimicrobial activity against Pseudomonas aeruginosa assessed as microbial growth inhibition by CLSI-protocol based broth microdilution assay. The class given is functional.
Data set [2] deals with Staphylococcus aureus. The experiment in a line: Antimicrobial activity against methicillin-resistant Staphylococcus aureus assessed as microbial growth inhibition by CLSI-protocol based broth microdilution assay. The class given is functional.

For the compound `CC1OC(=O)/C=C/[C@@H](O)CC[C@H](C)OC(=O)CCC1=O` (stereo partly drawn), the Activity result in the data set on OVCAR-3, in the data set on MDA-MB-435 and in the data set on MDA-MB-231 was “Non-Toxic” throughout. For the same compound, the minimal inhibitory concentration (MIC) with Escherichia coli was determined as 125 µg/mL (≈ 440 µM); with Bacillus anthracis, 62.5 µg/mL (≈ 220 µM); in the data set with Staphylococcus aureus [1], 1 µg/mL (≈ 3.52 µM); in the data set on Pseudomonas aeruginosa, 125 µg/mL (≈ 440 µM); in the data set on Staphylococcus aureus [2], 125 µg/mL (≈ 440 µM).

Consider `C[C@@H]1OC(=O)/C=C/[C@@H](O)CC[C@H](C)OC(=O)CC[C@@H]1O`, for which the MIC in the data set on Escherichia coli came out at 125 µg/mL (≈ 437 µM); in the data set on Bacillus anthracis it was 125 µg/mL (≈ 437 µM); with Staphylococcus aureus [1], 4 µg/mL (≈ 14 µM); in the data set with Pseudomonas aeruginosa, 125 µg/mL (≈ 437 µM); with Staphylococcus aureus [2] it was 125 µg/mL (≈ 437 µM).

On to `CC(=C\C(=O)O)/C=C(\C)C[C@H](C)CCCC[C@H]1OC(=O)[C@@H]1CO` [ANTIBIOTIC 1233A], for which the MIC in the data set with Escherichia coli was > 250 µg/mL; in the data set with Bacillus anthracis, > 250 µg/mL; with Staphylococcus aureus [1] it was 125 µg/mL (≈ 385 µM); in the data set with Pseudomonas aeruginosa it was 125 µg/mL (≈ 385 µM); with Staphylococcus aureus [2] it was 125 µg/mL (≈ 385 µM).

With `CC[C@H]1OC(=O)[C@H](C)[C@@H](O[C@H]2C[C@@](C)(OC)[C@@H](O)[C@H](C)O2)[C@H](C)[C@@H](O[C@@H]2O[C@H](C)C[C@H](N(C)C)[C@H]2O)[C@](C)(OC)C[C@@H](C)C(=O)[C@H](C)[C@@H](O)[C@]1(C)O` [CLARITHROMYCIN], the MIC in the data set on Escherichia coli is 16 µg/mL (≈ 21.4 µM); in the data set on Bacillus anthracis, 0.25 µg/mL (≈ 0.334 µM); with Staphylococcus aureus [1] it was 0.25 µg/mL (≈ 0.334 µM); in the data set with Pseudomonas aeruginosa, 125 µg/mL (≈ 167 µM); in the data set on Staphylococcus aureus [2], > 250 µg/mL.

As to `CC[C@H]1OC(=O)[C@H](C)[C@@H](O[C@H]2C[C@@](C)(OC)[C@@H](O)[C@H](C)O2)[C@H](C)[C@@H](O[C@@H]2O[C@H](C)C[C@H](N(C)C)[C@H]2O)[C@](C)(O)C[C@@H](C)C(=O)[C@H](C)[C@@H](O)[C@]1(C)O` [ERYTHROMYCIN], the MIC in the data set on Escherichia coli is 16 µg/mL (≈ 21.8 µM); in the data set with Bacillus anthracis it was 0.25 µg/mL (≈ 0.341 µM); in the data set on Staphylococcus aureus [1] it was 0.5 µg/mL (≈ 0.681 µM); in the data set on Pseudomonas aeruginosa, 62.5 µg/mL (≈ 85.2 µM); in the data set on Staphylococcus aureus [2] it was 0.25 µg/mL (≈ 0.341 µM).

As to `CC1(C)S[C@@H]2[C@H](NC(=O)Cc3ccccc3)C(=O)N2[C@H]1C(=O)O` [PENICILLIN G], the minimal inhibitory concentration (MIC) in the data set on Escherichia coli was 16 µg/mL (≈ 47.8 µM); in the data set with Bacillus anthracis, 0.25 µg/mL (≈ 0.748 µM); in the data set with Staphylococcus aureus [1], 0.25 µg/mL (≈ 0.748 µM); in the data set with Pseudomonas aeruginosa it was > 250 µg/mL; with Staphylococcus aureus [2], 0.5 µg/mL (≈ 1.5 µM).

As to `CO[C@H]1/C=C/O[C@@]2(C)Oc3c(C)c(O)c4c(O)c(c(/C=N/N5CCN(C)CC5)c(O)c4c3C2=O)NC(=O)/C(C)=C\C=C\[C@H](C)[C@H](O)[C@@H](C)[C@@H](O)[C@@H](C)[C@H](OC(C)=O)[C@@H]1C` [RIFAMPIN], the minimum inhibitory concentration (MIC) in the data set with Escherichia coli came out at 4 µg/mL (≈ 4.86 µM); in the data set on Bacillus anthracis, 0.25 µg/mL (≈ 0.304 µM); in the data set with Staphylococcus aureus [1], 0.25 µg/mL (≈ 0.304 µM); in the data set with Pseudomonas aeruginosa, 62.5 µg/mL (≈ 75.9 µM); in the data set with Staphylococcus aureus [2] it was 0.25 µg/mL (≈ 0.304 µM).

With `CN[C@@H]1[C@H](O[C@H]2[C@H](O[C@H]3[C@H](O)[C@@H](O)[C@H](N=C(N)N)[C@@H](O)[C@@H]3N=C(N)N)O[C@@H](C)[C@]2(O)C=O)O[C@@H](CO)[C@H](O)[C@H]1O` [STREPTOMYCIN], the minimum inhibitory concentration (MIC) in the data set with Escherichia coli came out at 0.25 µg/mL (≈ 0.43 µM); with Bacillus anthracis, 0.25 µg/mL (≈ 0.43 µM); in the data set on Staphylococcus aureus [1], 0.25 µg/mL (≈ 0.43 µM); in the data set on Pseudomonas aeruginosa, 1 µg/mL (≈ 1.72 µM); in the data set on Staphylococcus aureus [2], 0.25 µg/mL (≈ 0.43 µM).
